Source: patent publication US20080070855A1, “Treatment with anti-VEGF agents to prevent postoperative inflammation and angiogenesis in normal and diseased eyes” (priority 2006, published 2008)

System: patients with diabetic retinopathy undergoing cataract surgery
Experiment: Intravitreal injection of anti-VEGF compound before cataract surgery in patients with diabetic retinopathy (case reports)
Assay type: in vivo, human
Conditions: Example 2: diabetic retinopathy; 0.15 cc (3.75 mg) intravitreal, same day prior to cataract surgery
Experimental: The following is an example of a method performed for the intravitreal injection of pharmaceutical compositions containing at least one anti-VEGF compound. Prior to injecting a needle through the sclera, the eyes were massaged to soften the ophthalmic tissue. The next step is to create a bleb in the conjunctiva and move the conjunctiva up from prefere so it covered an area about 3.5 mm from the limbus. Once the conjunctiva is prepared, the needle is inserted through the sclera into the vitreous. A 30 or 31 gauge needle is used. […]
A person underwent cataract surgery in the right eye. […] Refraction of the right eye was measured as −0.25−0.75×170 20/200. […] Refraction of the right eye after one week was measured at −0.25 sph 20/25.
A person with proliferative diabetic retinopathy with a history of pan-photocoagulation underwent cataract surgery of both eyes, however on different dates. Preoperative right eye refraction was measured as pl −0.50×174 20/100. Preoperative left eye refraction was measured as −0.75 sph 20/150. […]
A person with proliferative diabetic retinopathy with a history of pan-photocoagulation underwent cataract surgery of the left eye. Preoperative left eye refraction was measured as plano sph 20/80. […] Six days following cataract surgery refraction of the left eye was measured as plano sph 20/25.

Bevacizumab: anti-VEGF humanized monoclonal IgG1 antibody that binds and inhibits VEGF (trade name AVASTIN, Genentech)
Patient condition after one week: doing well
